Molecules are shown by their SMILES.

One data set relates to Caco-2 cells. The data set can be described thus: MTT cell viability assay. It is filed as cell-based, human. The conditions noted are these: CUR 50 μM and 80 μM, 24 h, MTT (FIG. 9). The procedure:
Differentiated Caco-2 cells (ATCC, Rockville, Md., USA) were maintained in DMEM (4.5 g/L glucose) medium supplemented with 20% FBS (HyClone; Thermo Scientific, Waltham, Mass., USA), 1% non-essential amino acids, 1% L-glutamine, 1% streptomycin (100 μg/ml) and penicillin (100 IU/ml). The growth medium was changed every day in the first two weeks followed by three times a week.
Caco-2 cell line was transferred into 96-well plates, at a density of 5×10^4 cells per well. After cell adhesion, the culture media was removed and the cells were incubated with 250 μL of culture media containing a concentration range from 10 μM to 300 μM of CUR as free, CUR loaded LG NPs and equivalent unloaded LG NPs.
For free CUR, the samples were prepared from a stock solution in DMSO with appropriate dilutions to reach a maximum of 2% (v/v) of DMSO in each well. After a 24 h incubation period, the supernatant was removed and replaced by 100 μL of MTT solution (0.5 mg/ml) at (37 C°, 5% CO2) to allow MTT to be metabolized. […] Optical density was read at a wavelength of 570 nm using a microplate reader (ELX 800, Bio-Tek Instruments, Winooski, Vt., USA).
The induced cytotoxicity was calculated by comparing the optical density (OD) values against control wells. […] All measurements were performed in triplicate and the means±standard deviation (SD) were calculated.

The conditions of data set [1]: prior study; cited from earlier work.
The subject of the next data set is Caco-2 cell monolayer. The conditions noted are these: in-vitro Caco-2 model system, previously known; cited from earlier work.
For data set [2] the following is noted: reported; cited from earlier work.

On to `COc1cc(/C=C/C(=O)CC(=O)/C=C/c2ccc(O)c(OC)c2)ccc1O` [curcumin], for which the Cell viability result in the data set on Caco-2 cells is “below 50%”. In addition, in data set [1], the Oral bioavailability is given as 1%. For the same molecule, the Papp with Caco-2 cell monolayer is less than 3.18 ×10⁻⁶ cm/s. Moreover, the “log P” value in data set [2] was 3.7.

The values above are taken from patent US10420731B1, “Method of synthesizing lignin-based nanocompositions” (KING SAUD UNIVERSITY, priority 2019, dated 2019).
